pIC50: −log10 of the molar value. Counter-ions that a name gives are not always drawn.

This assay deals with T1, cGMP-PDE prepared from porcine aorta (Sus scrofa, UniProt A0A287B475).
T1 construct: Porcine aorta was cut into small pieces; from tissue; host or cells: porcine aorta, 100,000 x g supernatant, DEAE-Toyopearl 650S fraction
The assay is described as follows: Inhibitory Activity Against cGMP-PDE Prepared from Porcine Aorta. The class given is biochemical. Conditions: CaM-independent cGMP-PDE fraction; 1 μM cGMP substrate; 1 mM EGTA; DMSO 4% or below. The protocol:
Inhibitory Activity Against cGMP-PDE Prepared from Porcine Aorta The enzymatic activity of cGMP-PDE prepared from porcine aorta was determined by the method of Thompson et al. This determination was conducted in the presence of 1 mM EGTA by the use of 1 μM cGMP as the substrate. The compound of the present invention was added to the reaction system in a state dissolved in DMSO to determine its inhibitory activity. The final DMSO concentration of the reaction system was adjusted to 4% or below. The above cGMP-PDE was prepared as follows: Porcine aorta was cut into small pieces, followed by the addition of 10 times (by volume) as much buffer A [comprising Tris/HCl (20 mM), magnesium acetate (2 mM), dithiothreitol (1 mM), EDTA (5 mM), aprotinin (1400TIU/l),leupeptin (10 mg/l), benzamidine (1 mM) and PMSF (0.2 mM) and having a pH of 7.5]. The resulting mixture was homogenated and centrifuged at 100,000×g for one hour. The obtained supernatant was adsorbed on a column packed with DEAE-Toyopearl 650S (Tosoh, Tokyo, Japan). The resulting column was washed with buffer B [comprising Tris/HCl (50 mM), EGTA (0.1 mM), magnesium acetate (2 mM), dithiothreitol (1 mM) and PMSF (0.2 mM) and having a pH of 7.5] and thereafter subjected to gradient elution with 0.05 to 0.4M sodium chloride to give a CaM-independent cGMP-PDE fraction. The compounds of the present invention were examined for cGMP-PDE inhibitory activity by the above method and the results are given in Table 1.
One may read the pIC50 as the negative decadic logarithm of the IC50, by convention in mol/L. Low values mean a high IC50, high ones a low IC50. Consider `Clc1nc(NCc2ccc3c(c2)OCO3)c2cc(-n3cccn3)ccc2n1` [Example 1, 2-Chloro-4-(3,4-methylenedioxybenzyl)amino-6-(pyrazol-1-yl)quinazoline], for which the pIC50 is 8.00.

In the case of `CN(C)c1ccc2nc(Cl)nc(NCc3ccc4c(c3)OCO4)c2c1` [Example 2, 2-Chloro-4-(3,4-methylenedioxybenzyl)amino-6-dimethylaminoquinazoline], the pIC50 was 6.92.

In the case of `O=[N+]([O-])c1ccc2nc(Cl)nc(NCc3ccc4c(c3)OCO4)c2c1` [Example 3, 2-Chloro-4-(3,4-methylenedioxybenzyl)amino-6-nitroquinazoline], the pIC50 was 8.28.

In the case of `Clc1nc(NCc2ccc3c(c2)OCO3)c2cc(N3CCCCC3)ccc2n1` [Example 4, 2-Chloro-4-(3,4-methylenedioxybenzyl)amino-6-piperidinoquinazoline], the pIC50 is 5.91.

`Clc1nc(NCc2ccc3c(c2)OCO3)c2cc(-n3ccnc3Cl)ccc2n1` [Example 5, 2-Chloro-4-(3,4-methylenedioxybenzyl)amino-6-(2-chloroimidazol-1-yl)quinazoline] gave a pIC50 of 7.48.

`CCOC(=O)C1CCN(c2nc(NCc3ccc4c(c3)OCO4)c3cc(-n4cccn4)ccc3n2)CC1` [Example 6, 2-(4-Ethoxycarbonylpiperidino)-4-(3,4-methylenedioxybenzyl)amino-6-(pyrazol-1-yl)quinazoline hydrochloride] had a pIC50 of 8.09.

As to `CCOC(=O)C1CCN(c2nc(NCc3ccc4c(c3)OCO4)c3cc(N(C)C)ccc3n2)CC1` [Example 7, 2-(4-Ethoxycarbonylpiperidino)-4-(3,4-methylenedioxybenzyl)amino-6-dimethylaminoquinazoline], the pIC50 was 6.83.

Consider `CCOC(=O)C1CCN(c2nc(NCc3ccc4c(c3)OCO4)c3cc([N+](=O)[O-])ccc3n2)CC1` [Example 8, 2-(4-Ethoxycarbonylpiperidino)-4-(3,4-methylenedioxybenzyl)amino-6-dimethylnitroquinazoline], for which the pIC50 was 8.46.

Turning to `O=C(O)C1CCN(c2nc(NCc3ccc4c(c3)OCO4)c3cc(-n4cccn4)ccc3n2)CC1` [Example 9, 2-(4-Carboxypiperidino)-4-(3,4-methylenedioxybenzyl)amino-6-(pyrazol-1-yl)quinazoline], the pIC50 was 8.83.

`CN(C)c1ccc2nc(N3CCC(C(=O)O)CC3)nc(NCc3ccc4c(c3)OCO4)c2c1` [Example 10, 2-(4-Carboxypiperidino)-4-(3,4-methylenedioxybenzyl)amino-6-dimethylaminoquinazoline] had a pIC50 of 7.73.

`O=C(O)C1CCN(c2nc(NCc3ccc4c(c3)OCO4)c3cc([N+](=O)[O-])ccc3n2)CC1` [Example 11, 2-(4-Carboxypiperidino)-4-(3,4-methylenedioxybenzyl)amino-6-nitroquinazolin]: the pIC50 was 9.12.

For `CCOC(=O)C1CCN(c2nc(NCc3ccc4c(c3)OCO4)c3cc(N)ccc3n2)CC1` [Example 12, 2-(4-Ethoxycarbonylpiperidino)-4-(3,4-methylenedioxybenzyl)amino-6-aminoquinazoline dihydrochloride], the negative logarithm of the IC50 (pIC50) was 5.95.

`O=C(O)C1CCN(c2nc(NCc3ccc4c(c3)OCO4)c3cc(-c4nnn[nH]4)ccc3n2)CC1` [Example 13] showed a pIC50 of 8.14.

Take `c1cn(-c2ccc3ncnc(NCc4ccc5c(c4)OCO5)c3c2)cn1` [Example 14, 4-(3,4-Methylenedioxybenzyl)amino-6-(imidazol-1-yl)quinazoline]: the pIC50 was 6.14.

The compound `c1nc(NCc2ccc3c(c2)OCO3)c2cc(-n3cncn3)ccc2n1` [Example 15, 4-(3,4-Methylenedioxybenzyl)amino-6-(1,2,4-triazol-1-yl)quinazoline] gave a pIC50 of 6.44.

On to `COc1ccc(CNc2ncnc3ccc(-n4cnc(C)c4)cc23)cc1Cl` [Example 17, 4-(3-Chloro-4-methoxybenzyl)amino-6-(4-methylimidazol-1-yl)quinazoline], for which the pIC50 is 6.39.

The values are drawn from US5707998A, “Nitrogen-containing fused-heterocycle compounds” (Eisai Co., Ltd., priority 1993, dated 1998).
